Source: patent US20030203969A1, “Pharmaceutically active aromatic guanylhydrazones” (priority 2000, published 2003)

Key:
[1] = target: T1, deoxyhypusine synthase (DHS) (Homo sapiens, UniProt P49366); assay: In vitro DHS screening assay (hypusine formation on eIF-5A); assay type: biochemical
T1 construct: made in house; host or cells: E. coli BL21 (DE3), pGex vector
T1 sequence (P49366 1-369): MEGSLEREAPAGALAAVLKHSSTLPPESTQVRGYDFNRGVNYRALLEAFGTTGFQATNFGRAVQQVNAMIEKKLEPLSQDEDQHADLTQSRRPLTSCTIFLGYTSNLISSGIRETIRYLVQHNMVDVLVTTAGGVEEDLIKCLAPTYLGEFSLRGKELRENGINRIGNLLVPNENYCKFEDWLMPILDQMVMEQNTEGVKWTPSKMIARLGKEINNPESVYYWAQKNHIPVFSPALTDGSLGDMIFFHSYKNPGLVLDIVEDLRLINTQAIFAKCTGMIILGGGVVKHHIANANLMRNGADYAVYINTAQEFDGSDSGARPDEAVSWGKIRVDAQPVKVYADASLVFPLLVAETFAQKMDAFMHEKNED

[2] = test system: T-cell-tropic HIV-1NL4/3 strain; assay: Inhibition of T-cell-tropic HIV-1 NL4/3 replication in de novo infected Jurkat cells (p24 antigen); assay type: cell-based
Procedure: (§1) HIV replication was measured either by p24 HIV Antigen Capture Assay Kit (ELISA; HIVAG-1 Monoclonal kit BIA011; Abbott) following the manufacturer's recommendation, or by using the Quantiplex HIV-1 RNA 3.0 Assay (bDNA) system (Chiron Diagnostics). The latter assay is a signal amplification nucleic acid probe assay (employing a sandwich nucleic acid hybridization procedure) for direct quantitation of HIV RNA in human plasma. There, in brief, HIV-1 is first concentrated from plasma by centrifugation. After release of genomic HIV-1 RNA from the virions, the RNA is captured to a microwell by a set of specific, synthetic oligonucleotide capture probes. A set of target probes hybridize to both the viral RNA and the pre-amplifier probes. The capture probes, comprised of 17 individual capture extenders, and the target probes, comprised of 81 individual target extenders, bind to different regions of the pol gene of the viral RNA. The amplifier probe hybridizes to the pre-amplifier forming a branched DNA (bDNA) complex. Then, multiple copies of an alkaline phosphatase labeled probe are hybridized to this immobilized bDNA complex. Detection is achieved by incubating the entire complex with a chemoluminescent substrate. Light emission is directly proportional to the amount of HIV-1 RNA present in each sample, and results are recorded as relative light units by an appropriate analyzer.
(§2) Jurkat cells (species: human T-cell leukemia; special characteristics: cells are permissive for growth of T-cell tropic HIV strains; source:ATCC Cat.No. TIB 152) or PM1 cells (species: clonal derivative of human HUT 78 cells; special characteristics: cells are permissive for growth of macrophage-tropic and T-cell tropic HIV strains; source: Dr. Marvin Reitz, courtesy of the NIH AIDS Research and Reference Reagent Program Cat.No. 3038) were stimulated with Phytohemagglutinin (PHA-P, Product No. L9132 from Sigma) in a concentration of 2 μg/ml (1.5×10^6 cells/ml) and Hexadimethrine Bromide (Polybrene, Product No. H9268 from Sigma) in a concentration of 2 μg/ml (1.5×10^6 cells/ml) in RPMI 1640 medium containing 10% fetal calf serum (FCS, Pansystems GmbH) and antibiotics for 3 days.
(§3) For HIV-1 infection, 5×10^7 cells were resuspended in 500 μl culture medium without test drugs and incubated in a 50 ml blue-cap-tube at 37° C. for 5 hrs with HIV-1 high titer viral stocks. Jurkat cells were infected with the T-cell tropic strain HIV-1 NL4-3, PM1 cells with the macrophage tropic strain HIV-1 Ba-L (both from the NIH AIDS Research and Reference Reagent Program). After infection, cells were washed twice with PBS without Ca^2+ and Mg^2+ to avoid false positive p24 antigen determination. Cells were resuspended, and identical aliquots (1×10^6/ml) of infected cells were further cultured in 10 ml medium with test drugs at various concentrations, or in medium with DMSO as control for calculation of the inhibition of virus replication (in %].
(§4) Culture medium was changed and cells were split at days 3 and 7 of the experiments. Viability of the cells (Trypan-blue staining), cell counts and p24 antigen levels were determined at days 3, 7 and 10 of the experiments. No significant differences in cell viability were observed (˜85-90% living cells).
(§5) At day 10 of infection, the HIV strains replicated vigorously in untreated cultures. Numbers describe percent inhibition of HIV replication as compared to control experiments.

[3] = test system: macrophage-tropic HIV-1Ba-L strain; assay: Inhibition of macrophage-tropic HIV-1 Ba-L replication in de novo infected PM1 cells (p24 antigen); assay type: cell-based
Procedure: as §1, §2, §3, §4, §5

E. Coli XL-1 blue strain = assay: Growth assay for E. coli (optical density at 610 nm); assay type: cell-based; conditions: LB medium, 37° C., one day; read-out: IC50 (μM) E. coli proliferation
Procedure: We used the E. Coli XL-1 blue strain (Stratagene) for the investigation of antibacterial activity. During this experiments LB medium was used for E. coil growth. LB was prepared as follows: 1% trypton (weight/volume), 0.5% Yeast extract (weight/volume), and 1.5% NaCl (weight/volume) were dissolved in water and autoclaved. The media contained the inhibitor at 100 μM, 10 μM, or 1 μM concentrations, respectively.
The assay was performed as follows: bacteria were seeded to 96-well plates containing the respective inhibitors. The bacteria-containing plates were incubated at 37° C. for one day. After incubation time, E. coli growth was assayed by the measurement of the optical density at 610 nm wavelength.

Row | inhibition of the hypusine formation on the elF-5A protein [1] | Structure (SMILES) | percent inhibition of HIV replication as compared to control ([2]; HIV-1 NL4/3, 1.0 μM, d7) [%] | percent inhibition of HIV replication as compared to control ([2]; HIV-1 NL4/3, 1.0 μM, d10) [%] | percent inhibition of HIV replication as compared to control ([2]; HIV-1 NL4/3, 5.0 μM, d7) [%] | percent inhibition of HIV replication as compared to control ([2]; HIV-1 NL4/3, 5.0 μM, d10) [%] | percent inhibition of HIV replication as compared to control ([3]; 1.0 μM, d7) [%] | percent inhibition of HIV replication as compared to control ([3]; 1.0 μM, d10) [%] | percent inhibition of HIV replication as compared to control ([3]; 5.0 μM, d7) [%] | percent inhibition of HIV replication as compared to control ([3]; 5.0 μM, d10) [%] | IC50 (E. Coli XL-1 blue strain) [µM]
1 | potent inhibitors | CC(=NNC(=N)N)c1cc(NC(=O)CCC(=O)Nc2cc(C(C)=NNC(=N)N)cc(C(C)=NNC(=N)N)c2)cc(C(C)=NNC(=N)N)c1 [Compound 5, N,N′-bis (3,5-diacetylphenyl) butane diamide tetrakis (amidinohydrazone)] | 26 | 0 | 70 | 16 | 48 | 35 | 97 | 86 | < 0.1
2 | potent inhibitors | C/C(=N\N=C(N)N)c1ccc(NC(=O)Nc2cc(/C(C)=N/N=C(N)N)cc(/C(C)=N/N=C(N)N)c2)cc1 [Compound 1, N-(4-acetylphenyl)-N′-(3,5-diacetylphenyl)urea tris (amidinohydrazone)] | 15 | 5 | 52 | 31 | 23 | 0 | 72 | 51 | < 0.1
